Results from BindingDB's records for doi:10.1111/j.1432-1033.1991.tb15734.x (Universit&Eacute, 1991).
“And” between values parts separate entries of the source, which are not always exact repeats. Equal entries are not always repeated. Non-standard residues stand in square brackets, D forms with d. Residues, ends and D or L forms follow the SMILES beside them. ξ: configuration not given here. Ile(3ξ) = CCC(C)[C@H](N)C(=O)O

Assays:
[1] = molecular target: T1, VIP peptides (Homo sapiens, UniProt P01282)
T1 sequence (P01282 whole entry): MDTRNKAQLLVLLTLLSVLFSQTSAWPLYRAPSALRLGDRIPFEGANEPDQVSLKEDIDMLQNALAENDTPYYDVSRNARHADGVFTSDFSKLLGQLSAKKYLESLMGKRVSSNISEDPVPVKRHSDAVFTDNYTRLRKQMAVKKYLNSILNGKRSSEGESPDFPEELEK

[2] = molecular target: T2, VIP peptides (Rattus norvegicus, UniProt P01283)
T2 sequence (P01283 whole entry): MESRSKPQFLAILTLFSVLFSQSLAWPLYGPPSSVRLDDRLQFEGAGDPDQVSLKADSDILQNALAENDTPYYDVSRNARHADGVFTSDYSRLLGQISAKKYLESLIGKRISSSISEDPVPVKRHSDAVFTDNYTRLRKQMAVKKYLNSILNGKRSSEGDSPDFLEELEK

Row | Compound | Ki [1] [nM] | Ki [2]
1 | CC[C@H](C)[C@H](NC(=O)[C@H](CO)NC(=O)[C@H](CC(N)=O)NC(=O)[C@H](CC(C)C)NC(=O)[C@H](Cc1ccc(O)cc1)NC(=O)[C@H](CCCCN)NC(=O)[C@H](CCCCN)NC(=O)[C@@H](NC(=O)[C@H](C)NC(=O)[C@H](CCSC)NC(=O)[C@H](CCC(N)=O)NC(=O)[C@H](CCCCN)NC(=O)[C@H](CCCN=C(N)N)NC(=O)[C@H](CC(C)C)NC(=O)[C@H](CCCN=C(N)N)NC(=O)[C@@H](NC(=O)[C@H](Cc1ccc(O)cc1)NC(=O)[C@H](CC(N)=O)NC(=O)[C@H](CC(=O)O)NC(=O)[C@@H](NC(=O)[C@H](Cc1ccccc1)NC(=O)[C@@H](NC(=O)[C@H](C)NC(=O)[C@H](CC(=O)O)NC(=O)[C@H](CO)NC(=O)[C@@H](N)Cc1cnc[nH]1)C(C)C)[C@@H](C)O)[C@@H](C)O)C(C)C)C(=O)N[C@@H](CC(C)C)C(=O)N[C@@H](CC(N)=O)C(=O)O [CAS_37221-79-7] | 150 | 
2 | CC[C@H](C)[C@H](NC(=O)CNC(=O)[C@H](CCC(=O)O)NC(=O)[C@H](CO)NC(=O)[C@@H](N)Cc1cnc[nH]1)C(=O)N[C@@H](Cc1ccccc1)C(=O)N[C@H](C(=O)N[C@@H](CC(=O)O)C(=O)N[C@@H](CO)C(=O)N[C@@H](Cc1ccc(O)cc1)C(=O)N[C@@H](CO)C(=O)N[C@@H](CCCNC(=N)N)C(=O)N[C@@H](Cc1ccc(O)cc1)C(=O)N[C@@H](CCCNC(=N)N)C(=O)N[C@@H](CCCCN)C(=O)N[C@@H](CCC(N)=O)C(=O)N[C@@H](CCSC)C(=O)N[C@@H](C)C(=O)N[C@H](C(=O)N[C@@H](CCCCN)C(=O)N[C@@H](CCCCN)C(=O)N[C@@H](Cc1ccc(O)cc1)C(=O)N[C@@H](CC(C)C)C(=O)N[C@@H](C)C(=O)N[C@@H](C)C(=O)N[C@H](C(=O)N[C@@H](CC(C)C)C(N)=O)C(C)C)C(C)C)[C@@H](C)O [PACAP(1-27)] | 0.3 | 1.5 nM and 0.5 nM and 1 nM
3 | [C][C][C]([C])[C@H]([N]C(=O)[C][N]C(=O)[C@H]([C][C]C([O])=O)[N]C(=O)[C@@H]([N])[C][O])C(=O)[N][C@@H]([C]c1ccccc1)C(=O)[N][C@H](C(=O)[N][C@@H]([C]C([O])=O)C(=O)[N][C@@H]([C][O])C(=O)[N][C@@H]([C]c1ccc([O])cc1)C(=O)[N][C@@H]([C][O])C(=O)[N][C@@H]([C][C][C]N=C([N])[N])C(=O)[N][C@@H]([C]c1ccc([O])cc1)C(=O)[N][C@@H]([C][C][C]N=C([N])[N])C(=O)[N][C@@H]([C][C][C][C][N])C(=O)[N][C@@H]([C][C]C([N])=O)C(=O)[N][C@@H]([C][C]S[C])C(=O)[N][C@@H]([C])C(=O)[N][C@@H]([C]([C])[C])C(=O)[N][C@@H]([C][C][C][C][N])C(=O)[N][C@@H]([C][C][C][C][N])C(=O)[N][C@@H]([C]c1ccc([O])cc1)C(=O)[N][C@@H]([C][C]([C])[C])C(=O)[N][C@@H]([C])C(=O)[N][C@@H]([C])C(=O)[N][C@@H]([C]([C])[C])C(=O)[N][C@@H]([C][C]([C])[C])C([N])=O)[C@@H]([C])[O] [PACAP(2-27)] | 20 | 400 nM and 40 nM
4 | CCC(C)[C@H](NC(=O)CNC(=O)[C@H](CC(=O)O)NC(=O)[C@@H](N)CO)C(=O)N[C@@H](Cc1ccccc1)C(=O)N[C@H](C(=O)N[C@@H](CC(=O)O)C(=O)N[C@@H](CO)C(=O)N[C@@H](Cc1ccc(O)cc1)C(=O)N[C@@H](CO)C(=O)N[C@@H](CCCN=C(N)N)C(=O)N[C@@H](Cc1ccc(O)cc1)C(=O)N[C@@H](CCCN=C(N)N)C(=O)N[C@@H](CCCCN)C(=O)N[C@@H](CCC(N)=O)C(=O)N[C@@H](CCSC)C(=O)N[C@@H](C)C(=O)N[C@H](C(=O)N[C@@H](CCCCN)C(=O)N[C@@H](CCCCN)C(=O)N[C@@H](Cc1ccc(O)cc1)C(=O)N[C@@H](CC(C)C)C(=O)N[C@@H](C)C(=O)N[C@@H](C)C(=O)N[C@H](C(=O)N[C@@H](CC(C)C)C(=O)NCC(=O)N[C@@H](CCCCN)C(=O)N[C@@H](CCCN=C(N)N)C(=O)N[C@@H](Cc1ccc(O)cc1)C(=O)N[C@@H](CCCCN)C(=O)N[C@@H](CCC(N)=O)C(=O)N[C@@H](CCCN=C(N)N)C(=O)N[C@H](C(=O)N[C@@H](CCCCN)C(=O)N[C@@H](CC(N)=O)C(=O)N[C@@H](CCCCN)C(N)=O)C(C)C)C(C)C)C(C)C)[C@@H](C)O (stereo partly drawn) [PACAP(2-38)] (H-SDG[Ile(3ξ)]FTDSYSRYRKQMAVKKYLAAVLGKRYKQRVKNK-NH2) | 2 | 10 nM and 4 nM and 30 nM
5 | CC[C@H](C)[C@H](NC(=O)CNC(=O)[C@H](CC(=O)O)NC(=O)[C@H](CO)NC(=O)[C@@H](N)Cc1cnc[nH]1)C(=O)N[C@@H](Cc1ccccc1)C(=O)N[C@H](C(=O)N[C@@H](CC(=O)O)C(=O)N[C@@H](CO)C(=O)N[C@@H](Cc1ccc(O)cc1)C(=O)N[C@@H](CO)C(=O)N[C@@H](CCCNC(=N)N)C(=O)N[C@@H](Cc1ccc(O)cc1)C(=O)N[C@@H](CCCNC(=N)N)C(=O)N[C@@H](CCCCN)C(=O)N[C@@H](CCC(N)=O)C(=O)N[C@@H](CCSC)C(=O)N[C@@H](C)C(=O)N[C@H](C(=O)N[C@@H](CCCCN)C(=O)N[C@@H](CCCCN)C(=O)N[C@@H](Cc1ccc(O)cc1)C(=O)N[C@@H](CC(C)C)C(=O)N[C@@H](C)C(=O)N[C@@H](C)C(=O)N[C@H](C(=O)N[C@@H](CC(C)C)C(=O)NCC(=O)N[C@@H](CCCCN)C(=O)N[C@@H](CCCNC(=N)N)C(=O)N[C@@H](Cc1ccc(O)cc1)C(=O)N[C@@H](CCCCN)C(=O)N[C@@H](CCC(N)=O)C(=O)N[C@@H](CCCNC(=N)N)C(=O)N[C@H](C(=O)N[C@@H](CCCCN)C(=O)N[C@@H](CC(N)=O)C(=O)N[C@@H](CCCCN)C(N)=O)C(C)C)C(C)C)C(C)C)[C@@H](C)O [PACAP] |  | 0.9 nM and 0.3 nM
6 | H-HSDAVFTDNYTRLRKQMAVKKYLAAVL-NH2 [VIP-PACAP] | 100 | 
7 | H-HSDAVFTDNYTRYRKQMAVKKYLNSILN-OH [[Tyr13]VIP] | 40 | 
8 | H-HSDAVFTDSYTRLRKQMAVKKYLNSILN-NH2 [[Ser9]VIP] | 50 | 
9 | H-HSDAVFTDSYTRYRKQMAVKKYLNSILN-NH2 [[Ser9,Tyr13]VIP] | 15 | 
10 | H-HSDGIFTDSYTRLRKQMAVKKYLNSILN-OH [PACAP-VIP] | 8 | 
